Values joined by “and” are separate entries in the source; they are usually repeats but may differ in a detail not shown here. Equal entries are not always repeated. Where two headings read alike, the source gives them in different places.
Key:
[1] = LPME of eight basic drugs from water with phosphate buffer acceptors of different pH, CE analysis; type: physicochemical
[2] = LPME of seven basic drugs with different hollow fibres (polypropylene, polysulfone); type: physicochemical
[3] = LPME of drugs from human plasma, urine and whole blood with vial format device, CZE analysis; type: physicochemical
[4] = LPME of seven basic drugs from water with different acidic acceptor phases, CE analysis; type: physicochemical
[5] = LPME with different supported liquid membrane liquids, 96 well format device, HPLC analysis; details: 0.1 M hydrochloric acid acceptor, 30 min
Excerpt: A mixture of acidic and basic drugs was used in this study, together with 0.1 M hydrochloric acid or 0.1 M sodium hydroxide as the acceptor phase.
Four different membrane forming small molecular weight organic liquids were investigated for selectivity differences, viz. hexyl ether, 4-nitrophenyl octyl ether, 1-octanol and 2-octyl-1-dodecanol. […] A cover plate of a 96 well block, carrying polypropylene fiber of 8 cm length, 600 μm inner diameter and 0.2 μm pore size, was dipped into each of these pure liquids for 5 seconds. These liquids were contained in different wells of a 96 well plate. The fibers in the cover plate were then washed by sonication in water for 15 seconds to remove excess material sticking to the fibers. A five component mixture of acidic and basic drugs was prepared from acetaminophen, naproxen, bamethane, quinidine and doxepin. Concentrations of the stock drug solutions were 1.0 mg/mL in each case. […] This is to maintain roughly the same level of analytical signal with each of these drugs. The mixture was diluted to 20 mL with water so that the concentrations of the three dilute drugs is in the range of 1 μg/mL, while those of the more concentrated drugs is in the range of 5 μg/mL. 500 μL of this diluted mixture of drugs is further diluted eight fold (to 4 mL) with water containing 250 μL of 2.0 M sodium hydroxide and used for extraction. […] The acceptor solution consisted of 25 μL of 0.1 M hydrochloric acid in each case. Extraction time with vibration was 30 min for each membrane liquid. The enriched acceptor solution was diluted three fold in each case and 25 μL of the resulting diluted solution used for analysis by high performance liquid chromatography on a Omnisphere C18 column using acetonitrile/pH 7.0 dipotassium hydrogen phosphate as mobile phase. A gradient from 5% acetonitrile to 40% was used to elute the strongly retained components in a reasonable time frame.

[6] = 10 mM phosphate buffer acceptor pH 2.5, 60 minutes
[7] = 10 mM phosphate buffer acceptor pH 3.5, 60 minutes
[8] = human plasma 250 μL, hexyl ether membrane, 0.01 M hydrochloric acid acceptor, 30 minutes
[9] = human whole blood 250 μL, hexyl ether membrane, 0.01 M hydrochloric acid acceptor, 30 minutes
[10] = acceptor phase 10 mM CH3COOH, measured pH 3.3, water sample, 100 ng/mL
[11] = acceptor phase 10 mM H2S04, measured pH 2.1, water sample, 100 ng/mL
[12] = acceptor phase 10 mM H3PO4, measured pH 2.5, water sample, 100 ng/mL
[13] = acceptor phase 10 mM HCOOH, measured pH 3.1, water sample, 100 ng/mL
[14] = acceptor phase 10 mM HCl, measured pH 2.1, water sample, 100 ng/mL
[15] = acceptor phase 10 mM HNO3, measured pH 1.9, water sample, 100 ng/mL
[16] = acceptor phase 10 mM acetate, measured pH 4.8, water sample, 100 ng/mL
[17] = acceptor phase 10 mM phosphate, measured pH 3.3, water sample, 100 ng/mL
[18] = acceptor phase 100 mM CH3COOH, measured pH 2.7, water sample, 100 ng/mL
[19] = acceptor phase 100 mM H2S04, measured pH 1.3, water sample, 100 ng/mL
[20] = acceptor phase 100 mM H3PO4, measured pH 1.8, water sample, 100 ng/mL
[21] = acceptor phase 100 mM HCOOH, measured pH 2.3, water sample, 100 ng/mL
[22] = acceptor phase 100 mM HCl, measured pH 1.2, water sample, 100 ng/mL
[23] = acceptor phase 100 mM HNO3, measured pH 1.1, water sample, 100 ng/mL
[24] = acceptor phase 100 mM phosphate, measured pH 3.0, water sample, 100 ng/mL
[25] = hollow fibre Polypropylene, 280 μm ID, hexyl ether, 0.01 M hydrochloric acid acceptor
[26] = hollow fibre Polypropylene, 600 μm ID, hexyl ether, 0.01 M hydrochloric acid acceptor
[27] = hollow fibre Polysulfone, 500 μm ID, hexyl ether, 0.01 M hydrochloric acid acceptor
[28] = supported liquid membrane 1-octanol
[29] = supported liquid membrane 2-octyl-1-dodecanol
[30] = supported liquid membrane 4-nitrophenyl octyl ether
[31] = supported liquid membrane Hexyl Ether
[32] = 10 mM phosphate buffer acceptor pH 4.5, 60 minutes
[33] = human urine or plasma 2.5 mL, 1-octanol membrane, 0.1M hydrochloric acid acceptor, 45 minutes
[34] = 10 mM phosphate buffer acceptor pH 5.5, 60 minutes
[35] = 10 mM phosphate buffer acceptor pH 6.5, 60 minutes
[36] = 10 mM phosphate buffer acceptor pH 7.5, 60 minutes
[37] = human plasma, same fashion as tramadol example, running buffer 75 mM phosphate pH 3.0 + triethylamine + hydroxypropyl-β-cyclodextrin
[38] = human plasma 0.5 mL, hexyl ether, 0.1 M hydrochloric acid (17 μL) acceptor, 45 minutes, tramadol example
[39] = human urine 2.0 mL, hexyl ether, 0.01 M hydrochloric acid acceptor, 45 minutes

SMILES: CN1C(=O)CN=C(c2ccccc2)c2cc(Cl)ccc21 [diazepam]
- Enrichment (average of 3 replicates) ([1]; pH 2.5): 3
- Enrichment (average of 3 replicates) ([1]; pH 3.5): 2

SMILES: COc1ccc2c(c1OC)C(=O)O[C@@H]2[C@H]1c2c(cc3c(c2OC)OCO3)CCN1C [noscapin]
- Enrichment (average of 3 replicates) [1, 6]: 8
- Enrichment (average of 3 replicates) [1, 7]: 2

SMILES: COC(=O)[C@H]1[C@H]2C[C@@H]3c4[nH]c5cc(OC)ccc5c4CCN3C[C@H]2C[C@@H](OC(=O)c2cc(OC)c(OC)c(OC)c2)[C@@H]1OC [reserpin]
- Enrichment (average of 3 replicates) [1, 6]: 18
- Enrichment (average of 3 replicates) [1, 7]: 2

SMILES: O=C(CCCN1CCC(O)(c2ccc(Cl)cc2)CC1)c1ccc(F)cc1 [haloperidol]
- Enrichment (average of 3 replicates) [2]: 131

SMILES: CCC(=O)C(CC(C)N(C)C)(c1ccccc1)c1ccccc1 (stereo not drawn) [methadone]
- Enrichment [3, 8]: 6.4
- Enrichment [3, 9]: 5.4
- Enrichment (average of 3 replicates) [4, 10]: 86
- Enrichment (average of 3 replicates) [4, 11]: 157
- Enrichment (average of 3 replicates) [4, 12]: 96
- Enrichment (average of 3 replicates) [4, 13]: 114
- Enrichment (average of 3 replicates) [4, 14]: 138
- Enrichment (average of 3 replicates) [4, 15]: 141
- Enrichment (average of 3 replicates) [4, 16]: 42
- Enrichment (average of 3 replicates) [4, 17]: 134
- Enrichment (average of 3 replicates) [4, 18]: 84
- Enrichment (average of 3 replicates) [4, 19]: 150
- Enrichment (average of 3 replicates) [4, 20]: 77
- Enrichment (average of 3 replicates) [4, 21]: 91
- Enrichment (average of 3 replicates) [4, 22]: 134
- Enrichment (average of 3 replicates) [4, 23]: 107
- Enrichment (average of 3 replicates) ([4]; acceptor phase 100 mM acetate, measured pH 4.8, water sample, 100 ng/mL): 42
- Enrichment (average of 3 replicates) [4, 24]: 117
- Enrichment (average of 3 replicates) [2, 25]: 138
- Enrichment (average of 3 replicates) [2, 26]: 138
- Enrichment (average of 3 replicates) [2, 27]: 139

SMILES: C=C[C@H]1C[N@@]2CC[C@H]1C[C@@H]2[C@@H](O)c1ccnc2ccc(OC)cc12 [quinidine]
- Enrichment [5, 28]: 100
- Enrichment [5, 29]: 20
- Enrichment [5, 30]: 52
- Enrichment [5, 31]: 100

SMILES: CN1CCN(C(c2ccccc2)c2ccc(Cl)cc2)CC1 (stereo not drawn) [chlorcyclizine]
- Enrichment ([3]; human plasma 2.0 mL, hexyl ether, 0.01 M hydrochloric acid acceptor, 45 minutes): 52
- Enrichment (average of 3 replicates) [4, 10]: 32
- Enrichment (average of 3 replicates) [4, 11]: 122
- Enrichment (average of 3 replicates) [4, 12]: 118
- Enrichment (average of 3 replicates) [4, 13]: 72
- Enrichment (average of 3 replicates) [4, 14]: 126
- Enrichment (average of 3 replicates) [4, 15]: 120
- Enrichment (average of 3 replicates) [4, 16]: 3
- Enrichment (average of 3 replicates) [4, 17]: 83
- Enrichment (average of 3 replicates) [4, 18]: 66
- Enrichment (average of 3 replicates) [4, 19]: 136
- Enrichment (average of 3 replicates) [4, 20]: 80
- Enrichment (average of 3 replicates) [4, 21]: 93
- Enrichment (average of 3 replicates) [4, 22]: 138
- Enrichment (average of 3 replicates) [4, 23]: 136
- Enrichment (average of 3 replicates) [4, 24]: 93
- Enrichment (average of 3 replicates) [2, 25]: 106
- Enrichment (average of 3 replicates) [2, 26]: 126
- Enrichment (average of 3 replicates) [2, 27]: 110
- Enrichment (average of 3 replicates) [1, 6]: 123
- Enrichment (average of 3 replicates) [1, 7]: 32
- Enrichment (average of 3 replicates) [1, 32]: 5

SMILES: CN[C@@H](C)Cc1ccccc1 [methamphetamine]
- Enrichment [3, 8]: 8.1
- Extraction efficiency [3, 8]: 81%
- Enrichment [3, 33]: 75 fold
- Extraction efficiency [3, 33]: 75%
- Enrichment ([3]; human whole blood 2.5 mL, 280 μm ID polypropylene fiber, hexyl ether, 17 μL 0.1 M hydrochloric acid acceptor, 30 minutes): one hundred
- Enrichment [3, 9]: 7.8
- Extraction efficiency [3, 9]: 78%
- Enrichment (average of 3 replicates) [4, 10]: 93
- Enrichment (average of 3 replicates) [4, 11]: 141
- Enrichment (average of 3 replicates) [4, 12]: 96
- Enrichment (average of 3 replicates) [4, 13]: 106
- Enrichment (average of 3 replicates) [4, 14]: 122
- Enrichment (average of 3 replicates) [4, 15]: 125
- Enrichment (average of 3 replicates) [4, 16]: 128
- Enrichment (average of 3 replicates) [4, 17]: 136
- Enrichment (average of 3 replicates) [4, 18]: 77
- Enrichment (average of 3 replicates) [4, 19]: 134
- Enrichment (average of 3 replicates) [4, 20]: 83
- Enrichment (average of 3 replicates) [4, 21]: 13
- Enrichment (average of 3 replicates) [4, 22]: 120
- Enrichment (average of 3 replicates) [4, 24]: 133
- Enrichment (average of 3 replicates) [2, 25]: 123
- Enrichment (average of 3 replicates) [2, 26]: 122
- Enrichment (average of 3 replicates) [2, 27]: 46
- Enriched to the extent of ([2]; polypropylene fiber, 600 μm inner diameter, hexyl ether, 0.01 M hydrochloric acid): 82%
- Recovered/enriched to the extent of ([2]; polysulfone fiber, 500 μm inner diameter, hexyl ether, 0.01 M hydrochloric acid): 22%
- Enrichment (average of 3 replicates) [1, 6]: 150
- Enrichment (average of 3 replicates) [1, 7]: 146
- Enrichment (average of 3 replicates) [1, 32]: 150
- Enrichment (average of 3 replicates) [1, 34]: 134
- Enrichment (average of 3 replicates) [1, 35]: 122
- Enrichment (average of 3 replicates) [1, 36]: 88

SMILES: CNCCCC1(c2ccc(F)cc2)OCc2cc(C#N)ccc21 (stereo not drawn) [N-desmethyl metabolite, N-desmethylcitalopram]
- Preconcentration ([3]; patient plasma 1 mL, hexyl ether membrane, 20 mM phosphate buffer pH 2.75 acceptor, 45 minutes): 30 fold

SMILES: CN1CCN2c3ccccc3Cc3ccccc3C2C1 (stereo not drawn) [Mianserine, mianserine]
- Enrichment [3, 37]: 15 fold
- Extraction efficiency [3, 37]: 50%

SMILES: COc1cccc(C2(O)CCCCC2CN(C)C)c1 (stereo not drawn) [Tramadol, tramadol]
- Enrichment [3, 38]: 30 fold
- Extraction efficiency [3, 38]: 100%

SMILES: CC(N)Cc1ccccc1 (stereo not drawn) [amphetamine]
- Enrichment [3, 39]: 77
- Extraction efficiency [3, 39]: 97%
- Enrichment (average of 3 replicates) [4, 10]: 66
- Enrichment (average of 3 replicates) [4, 11]: 104
- Enrichment (average of 3 replicates) [4, 12]: 72
- Enrichment (average of 3 replicates) [4, 13]: 72
- Enrichment (average of 3 replicates) [4, 14]: 82
- Enrichment (average of 3 replicates) [4, 15]: 48
- Enrichment (average of 3 replicates) [4, 16]: 90
- Enrichment (average of 3 replicates) [4, 17]: 123
- Enrichment (average of 3 replicates) [4, 18]: 48
- Enrichment (average of 3 replicates) [4, 19]: 98
- Enrichment (average of 3 replicates) [4, 20]: 58
- Enrichment (average of 3 replicates) [4, 21]: 5
- Enrichment (average of 3 replicates) [4, 22]: 74
- Enrichment (average of 3 replicates) [4, 24]: 128
- Enrichment (average of 3 replicates) [2, 25]: 104
- Enrichment (average of 3 replicates) [2, 26]: 82
- Enrichment (average of 3 replicates) [2, 27]: 22
- Enrichment (average of 3 replicates) [1, 6]: 107
- Enrichment (average of 3 replicates) [1, 7]: 102
- Enrichment (average of 3 replicates) [1, 32]: 104
- Enrichment (average of 3 replicates) [1, 34]: 93
- Enrichment (average of 3 replicates) [1, 35]: 88
- Enrichment (average of 3 replicates) [1, 36]: 64

SMILES: CC(CN1c2ccccc2Sc2ccccc21)N(C)C (stereo not drawn) [promethazine]
- Enrichment [3, 8]: 5.5
- Extraction efficiency [3, 8]: 55%
- Enrichment [3, 9]: 4.3
- Extraction efficiency [3, 9]: 43%

SMILES: CN(C)CCC=C1c2ccccc2COc2ccccc21 [doxepin]
- Enrichment [5, 28]: 58
- Enrichment [5, 29]: 147
- Enrichment [5, 30]: 227
- Enrichment [5, 31]: 202

SMILES: CCOC(=O)C1(c2ccccc2)CCN(C)CC1 [pethidine]
- Enrichment [3]: 74%/7.4 and 72%/7.2
- Extraction efficiency [3]: 74%/7.4 and 72%/7.2
- Enrichment (average of 3 replicates) ([4]; pH 1.1): 64
- Enrichment (average of 3 replicates) ([4]; pH 1.2): 139
- Enrichment (average of 3 replicates) ([4]; pH 1.3): 141
- Enrichment (average of 3 replicates) ([4]; pH 1.8): 90
- Enrichment (average of 3 replicates) ([4]; pH 1.9): 106
- Enrichment (average of 3 replicates) ([4]; pH 2.1): 128 and 144
- Enrichment (average of 3 replicates) ([4]; pH 2.3): 106
- Enrichment (average of 3 replicates) ([4]; pH 2.5): 98
- Enrichment (average of 3 replicates) ([4]; pH 2.7): 90
- Enrichment (average of 3 replicates) ([4]; pH 3): 131
- Enrichment (average of 3 replicates) ([4]; pH 3.1): 115
- Enrichment (average of 3 replicates) ([4]; pH 3.3): 96 and 139
- Enrichment (average of 3 replicates) ([4]; pH 4.8): 106 and 91
- Enrichment (average of 3 replicates) [2]: 125 and 128 and 122
- Enrichment (average of 3 replicates) ([1]; pH 2.5): 160
- Enrichment (average of 3 replicates) ([1]; pH 3.5): 147
- Enrichment (average of 3 replicates) ([1]; pH 4.5): 131
- Enrichment (average of 3 replicates) ([1]; pH 5.5): 90
- Enrichment (average of 3 replicates) ([1]; pH 6.5): 34
- Enrichment (average of 3 replicates) ([1]; pH 7.5): 6

SMILES: COc1ccc2cc([C@H](C)C(=O)O)ccc2c1 [Naproxen, naproxen]
- Enrichment [3]: 82 fold

— patent publication US7468281B2, “Hollow fiber membrane sample preparation devices” (priority 2001, dated 2008)
